Reference: patent US6893830B1, “Method of screening oxysterol activation of LXRα” (The Board of Regents of the University of Texas System, priority 1996, dated 2005)

Legend:
[1] = target: T1, TR-LXR chimera (TRβ N-terminus and DNA binding domain fused to ligand binding domain of LXRα) (Homo sapiens, UniProt Q13133); assay: Chimeric receptor transactivation in CV-1 cells, TR-LXR chimera; assay type: cell-based; conditions: TK-LXREx3-LUC
T1 construct: expressed in transfected cells; host or cells: CV-1 monkey kidney cells
T1 sequence (Q13133 164-447): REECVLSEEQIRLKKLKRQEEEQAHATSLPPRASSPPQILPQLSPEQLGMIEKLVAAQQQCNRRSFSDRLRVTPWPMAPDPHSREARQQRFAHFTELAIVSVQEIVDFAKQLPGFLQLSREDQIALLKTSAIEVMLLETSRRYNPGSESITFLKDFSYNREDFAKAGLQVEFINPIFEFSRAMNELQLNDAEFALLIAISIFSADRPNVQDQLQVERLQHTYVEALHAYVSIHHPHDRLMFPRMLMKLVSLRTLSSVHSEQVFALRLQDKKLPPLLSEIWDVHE
Description: Cells were treated with ETOH or 6 μM 22(R)-hydroxycholesterol. […] CV-1 cells were cotransfected with TK-LXREx3-LUC reporter plasmid and expression plasmids containing the indicated receptor combinations, and then treated with the indicated ligands. […] CV-1 cells cotransfected with the LXRα expression plasmid and TK-LXREx3-LUC reporter were treated with 9-cis RA, 22(R)-hydroxycholesterol, or both, at the indicated concentrations.

[2] = tested on: other known nuclear receptors (RXRα, RARα, TRβ, VDR, PPARα, FXR, ER, GR, usp/EcR); assay: Receptor-specific transactivation: cotransfection of other nuclear receptors with their cognate response element reporters in CV-1 cells; assay type: cell-based, human; conditions: 6 μM 22(R)-hydroxycholesterol
Description: (§1) TK-DR-4-LUC; human vitamin D receptor (VDR)^24, TK-DR^3-LUC; human peroxisome proliferator-activated receptor-α (PPARα)^25, TK-PPREx3-LUC; human farnesol activated receptor (FXR)^11, ΔMTV-EcREx5-LUC; human estrogen receptor (ER)^26, ΔMTV-ERE-LUC; human glucocorticoid receptor (GR)^27, MTV-LUC; Drosophila ecdysone receptor (usp/EcR)^15, ΔMTV-EcREx5-LUC. Cells were treated with ETOH or 6 μM 22(R)-hydroxycholesterol. […] FIG. 3(A)-3(D) Activation of LXRα by 22(R)-hydroxycholesterol in Drosophila (SL-2) cells. […] CV-1 cells were cotransfected with TK-LXREx3-LUC reporter plasmid and expression plasmids containing the indicated receptor combinations, and then treated with the indicated ligands. […] CV-1 cells cotransfected with the LXRα expression plasmid and TK-LXREx3-LUC reporter were treated with 9-cis RA, 22(R)-hydroxycholesterol, or both, at the indicated concentrations.
(§2) In FIG. 3B. Drosophila SL-2 cells were transfected and assayed as previously described^5 in 6-well plates with […] A5C-hLXRα or A5C-hLXRα, 0.5 mg ADH-LXREx2-LUC, 0.2 mg A5C-βGAL and […] PGEM4 carrier DNA per well.

[3] = target: T2, LXR-TR chimera (LXRα N-terminus and DNA binding domain fused to ligand binding domain of TRβ) (Homo sapiens, UniProt P10828+Q13133); conditions: CV-1 cells, TK-LXREx3-LUC
T2 sequence (Q13133+P10828 with tags, fused parts or gaps): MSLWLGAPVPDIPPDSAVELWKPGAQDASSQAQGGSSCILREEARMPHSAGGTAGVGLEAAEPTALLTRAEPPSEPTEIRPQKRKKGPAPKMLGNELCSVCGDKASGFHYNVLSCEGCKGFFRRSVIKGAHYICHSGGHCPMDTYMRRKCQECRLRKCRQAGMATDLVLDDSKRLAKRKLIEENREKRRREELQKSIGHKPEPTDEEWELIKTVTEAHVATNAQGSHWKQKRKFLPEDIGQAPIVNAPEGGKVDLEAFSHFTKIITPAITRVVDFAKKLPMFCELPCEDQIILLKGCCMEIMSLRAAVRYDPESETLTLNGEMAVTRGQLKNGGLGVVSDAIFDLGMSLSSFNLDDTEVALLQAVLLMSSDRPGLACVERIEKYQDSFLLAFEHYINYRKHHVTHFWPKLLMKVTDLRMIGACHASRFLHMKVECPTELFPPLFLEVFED

LXRα = target: T3, LXRα (Homo sapiens, UniProt Q13133); assay: Activation of LXRα in Drosophila SL-2 cells (LXR responsive reporter); assay type: cell-based; design: expressed in transfected cells; host or cells: Drosophila SL-2 cells; conditions: 10 μM
T3 sequence (Q13133 1-447): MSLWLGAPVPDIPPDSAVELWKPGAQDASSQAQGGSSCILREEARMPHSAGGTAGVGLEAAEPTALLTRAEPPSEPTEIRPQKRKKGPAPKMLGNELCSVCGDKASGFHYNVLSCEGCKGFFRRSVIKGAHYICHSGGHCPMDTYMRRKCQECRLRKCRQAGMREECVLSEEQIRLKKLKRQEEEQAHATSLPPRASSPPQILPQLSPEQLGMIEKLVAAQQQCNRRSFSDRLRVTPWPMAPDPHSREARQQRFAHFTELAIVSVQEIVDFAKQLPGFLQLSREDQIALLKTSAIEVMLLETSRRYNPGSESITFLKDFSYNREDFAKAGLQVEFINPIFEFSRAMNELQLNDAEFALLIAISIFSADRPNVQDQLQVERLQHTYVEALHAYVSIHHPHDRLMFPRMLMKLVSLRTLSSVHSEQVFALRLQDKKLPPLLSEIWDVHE
T3 sequence (P19793 1-462 partner): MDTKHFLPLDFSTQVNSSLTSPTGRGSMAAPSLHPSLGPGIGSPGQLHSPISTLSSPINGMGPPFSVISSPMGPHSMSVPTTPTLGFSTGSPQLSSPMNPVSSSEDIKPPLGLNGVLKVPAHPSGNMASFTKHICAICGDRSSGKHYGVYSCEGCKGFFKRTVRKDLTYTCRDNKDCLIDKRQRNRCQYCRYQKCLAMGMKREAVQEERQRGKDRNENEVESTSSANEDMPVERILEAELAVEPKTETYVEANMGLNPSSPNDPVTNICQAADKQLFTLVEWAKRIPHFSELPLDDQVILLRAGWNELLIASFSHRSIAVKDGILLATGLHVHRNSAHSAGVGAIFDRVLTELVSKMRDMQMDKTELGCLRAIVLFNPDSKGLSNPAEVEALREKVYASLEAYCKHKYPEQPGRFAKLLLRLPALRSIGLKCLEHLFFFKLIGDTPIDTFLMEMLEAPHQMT
Description: as §1, §2
The insect cell line, SL-2, which lacks mammalian nuclear receptors and is deficient in the metabolic pathways for cholesterol and bile acid synthesis^14, was used as a transfection host in these experiments. […]

RXR/LXR heterodimer = RXR/LXR heterodimer activation, dose response in CV-1 cells with TK-LXREx3-LUC; assay type: cell-based, human; conditions: LXRα expression plasmid, dose-dependent
Description: as §1, §2
A subset of receptors that function as RXR heterodimers have the unique ability to be activated by their own ligand, the RXR ligand (i.e., 9-cis retinoic acid), or both ligands together^11,17. […]

Compound: CC(C)CC[C@@H](O)[C@@H](C)[C@H]1CC[C@H]2[C@@H]3CC=C4C[C@@H](O)CC[C@]4(C)[C@H]3CC[C@]12C [22(R)-hydroxycholesterol]
- responsiveness of TR-LXR chimera [1]: responded
- cross-reactivity with other known nuclear receptors (transactivation) [2]: no cross-reactivity
- responsiveness of LXR-TR chimera [3]: loses responsiveness
- induction, LXRα alone transfected (LXRα; LXRα alone): 6 fold
- induction, RXRα cotransfected with LXRα (LXRα; RXRα plus LXRα): 26 fold
- maximal induction (RXR/LXR heterodimer): 20 fold
